These results are taken from the OligoGym collection.

The series has as its target HSD17B13. The following applies: ASO, HepaRG.

After the bases stand the sugars from the 5' end (letter, count) and the backbone: PS all phosphorothioate, else s phosphorothioate and o phosphodiester by linkage. Methylation of C is not given here. e = 2'-O-(2-methoxyethyl) (MOE); k = constrained ethyl (cEt); d = 2'-deoxy (DNA); m = 2'-O-methyl

For “AACAGTCTTAAACCTT (sugars k3 d9 k3 e1, PS)”, the target mRNA inhibition (1 µM) stood at 57%.
On the same count and under the same terms, the value for ACTGAAGGTCTGAGCT (sugars k3 d10 k3, PS) was 20%.
With CGGCACTCAGCTGCAG (sugars k3 d10 k3, PS), the target mRNA inhibition (1 µM) stood at 55%.
Same read-out and setting: the value for ATTGCATAAGAGCCAA (sugars k3 d10 k3, PS) was 67%.
For “TGCCAAACCAATGTTT (sugars kkdddddddddkekek, PS)”, where the note is “1 µM”, the target mRNA inhibition is 61%.
Take TCTCTTGACAATGGTT (sugars k3 d10 k3, PS): the target mRNA inhibition by setting is: (0.02 µM) 2%; (0.078 µM) 14%; (0.313 µM) 44%; (1 µM) 70%; (1.25 µM) 86%; (5 µM) 86%.
Sequence AGCTGAGAGTTCTACA (sugars k3 d10 k3, PS) yielded a target mRNA inhibition (1 µM) of 67%.
In turn, TATCTTAAGAGAAGGT (sugars k3 d10 k3, PS) registered a target mRNA inhibition (1 µM) of 29%.
The same measure, in the same setting: the value for TTAAGATACCCAGGTT (sugars k3 d10 k3, PS) was 37%; that for GTTACATCACCCACTT (sugars k3 d10 k3, PS) was 41%; that for GATTATTATGTGATTG (sugars k3 d10 k3, PS) was 39%.
Same read-out and setting: the value for TACAGTAGGCAGTTTC (sugars k3 d10 k3, PS) was 60%; that for CAGACCTATGAAAAAC (sugars k3 d10 k3, PS) was 26%.
TGGAAACATGCTTGGC (sugars k3 d10 k3, PS) registered a target mRNA inhibition (1 µM) of 62%.
The same measure, in the same setting: the value for GTTTTGATACCAGTTT (sugars k3 d10 k3, PS) was 67%; that for TTGGCCGAGGAGGGCG (sugars k3 d10 k3, PS) was 3%.
The same measure, in the same setting: the value for GGCAAGGATACCTGAA (sugars k3 d10 k3, PS) was 67%; that for “TCTAAGTTAGCCCCCA (sugars kkdddddddddkekek, PS)” was 19%; that for TGTGCACTCATTCTGT (sugars k3 d10 k3, PS) was 18%.
For the setting “1 µM”, “GAGATAAAGCTGCCTG (sugars kkdddddddddkekek, PS)” yielded a target mRNA inhibition of 40%.
Still for that read-out and setting: the value for CTCGCGAGATGATGTT (sugars k3 d10 k3, PS) was 40%; that for CTTACCAATATGGGAT (sugars k3 d10 k3, PS) was 11%.
On the same count and under the same terms, the value for ATTACTTCTGATGTCC (sugars k3 d10 k3, PS) was 65%; that for GTATTCCATAAAGCTG (sugars k3 d10 k3, PS) was 10%; that for GCAAAAGGAGCCAGTT (sugars k3 d10 k3, PS) was 57%.
“TAAAATAGAGTCGGTC (sugars kkdddddddddkekek, PS)” yielded a target mRNA inhibition (1 µM) of 68%.
On to CTTGTGTAGTCCTAGG (sugars k3 d10 k3, PS), for which the target mRNA inhibition is, setting by setting: (0.02 µM) 7%; (0.078 µM) 13%; (0.313 µM) 39%; (1 µM) 71%; (1.25 µM) 70%; (5 µM) 87%.
With ACTTTTAGTCAGGTAG (sugars k3 d10 k3, PS), where the note is “1 µM”, the target mRNA inhibition worked out at 26%.
Where the note is “1 µM”, ACATCTCTGGGACCAA (sugars k3 d10 k3, PS) registered a target mRNA inhibition of 78%.
Same read-out and setting: the value for TGAAATCTTGTGTAAC (sugars k3 d10 k3, PS) was 43%; that for CATCTAACTAACCTGA (sugars k3 d10 k3, PS) was 0%; that for CGTTTAAATCAGAGCA (sugars k3 d10 k3, PS) was 54%.
Still for that read-out and setting: the value for GAACCTATGTGTGCAC (sugars k3 d10 k3, PS) was 53%.
With CCTGTGTAAATAAGTT (sugars k3 d10 k3, PS), where the note is “1 µM”, the target mRNA inhibition was 18%.
The sequence GCAATAGTACTATAGT (sugars k3 d10 k3, PS) came in with a target mRNA inhibition (1 µM) of 39%.
Same read-out and setting: the value for CTTTTGGTGGACTTCA (sugars k3 d10 k3, PS) was 10%.
Same read-out and setting: the value for TTGTTGATATTCTGTG (sugars k3 d10 k3, PS) was 52%.
GCCTAAAGGAGATCTG (sugars k3 d10 k3, PS) registered a target mRNA inhibition (1 µM) of 67%.
Still for that read-out and setting: the value for “TAATACATTAGCAAGC (sugars k3 d9 k3 e1, PS)” was 35%; that for “TGTTGATATTCTGTGG (sugars k3 d1 m1 d8 k3, PS)” was 48%.
With AGTCAGTATCCCCTCA (sugars k3 d10 k3, PS), the target mRNA inhibition was 6% (0.02 µM); 14% (0.078 µM); 32% (0.313 µM); 82% (1 µM); 70% (1.25 µM); 74% (5 µM).
The sequence “TAAGCAGAATTGTGAA (sugars k3 d1 m1 d8 k3, PS)” gave a target mRNA inhibition (1 µM) of 26%.
On the same count and under the same terms, the value for ATTCTGTGTTCTTGTT (sugars k3 d10 k3, PS) was 67%.
As for TAATTACAACCTGGTT (sugars k3 d10 k3, PS), the target mRNA inhibition (1 µM) stood at 52%.
Under “1 µM”, AAGATATTGATATACG (sugars k3 d10 k3, PS) came in with a target mRNA inhibition of 45%.
The same measure, in the same setting: the value for “GGGAGGTAGCTTTTGT (sugars k3 d1 m1 d8 k3, PS)” was 17%; that for “CTTAUTGGTAAGTATT (sugars k3 d1 m1 d8 k3, PS)” was 0%.
Still for that read-out and setting: the value for GGCTACAGATTGGAAT (sugars k3 d10 k3, PS) was 23%.
The same measure, in the same setting: the value for AGTCTTGATGTAGTGG (sugars k3 d10 k3, PS) was 63%.
In turn, CCCTGTGTAAATAAGT (sugars k3 d10 k3, PS) yielded a target mRNA inhibition (1 µM) of 41%.
On to “GATCUCTTAGCTGTGC (sugars k3 d1 m1 d8 k3, PS)”, for which the target mRNA inhibition (1 µM) worked out at 65%.
For the sequence GCTGTAATTAGGAAGA (sugars k3 d10 k3, PS), the target mRNA inhibition (1 µM) was determined as 24%.
The same measure, in the same setting: the value for “CTGCUAGTGCCAAACC (sugars k3 d1 m1 d8 k3, PS)” was 67%.
As to TCTTGACAATGGTTGC (sugars k3 d10 k3, PS), the target mRNA inhibition (1 µM) amounted to 77%.
The same measure, in the same setting: the value for “CTTTGCAGCATTGATT (sugars k3 d9 k3 e1, PS)” was 56%; that for “TAGTGGACTTCATTAG (sugars k3 d1 m1 d8 k3, PS)” was 34%; that for “TGTAATAGCCAGTACA (sugars k3 d1 m1 d8 k3, PS)” was 40%.
For the sequence CTAAAACTGAAGGTCT (sugars k3 d10 k3, PS), the target mRNA inhibition (1 µM) amounted to 40%.
As for GAATGTAAAGGCTGGG (sugars k3 d10 k3, PS), the target mRNA inhibition (1 µM) stood at 42%.
As to ACACCGCGCTTATTAA (sugars k3 d10 k3, PS), where the note is “1 µM”, the target mRNA inhibition is 7%.
For AGTCATTTTTAATACG (sugars k3 d10 k3, PS), for the setting “1 µM”, the target mRNA inhibition is 13%.
On the same count and under the same terms, the value for TCAAGTAATAAAGTCC (sugars k3 d10 k3, PS) was 49%; that for CTGAGCTAGACAATTG (sugars k3 d10 k3, PS) was 56%.
Still for that read-out and setting: the value for GCATATTCATTTGGCC (sugars k3 d10 k3, PS) was 6%; that for TACCACATACGCATGC (sugars k3 d10 k3, PS) was 33%; that for TCCCACAAAACTAACC (sugars k3 d10 k3, PS) was 24%.
Where the note is “1 µM”, TTATACTGAAGGCTGT (sugars k3 d10 k3, PS) yielded a target mRNA inhibition of 23%.
On the same count and under the same terms, the value for TTCCGGTAAGAATTTC (sugars k3 d10 k3, PS) was 33%; that for TAGTAATCACAAGTAA (sugars k3 d10 k3, PS) was 30%.
The same measure, in the same setting: the value for GTAAAATTATGCCTTG (sugars k3 d10 k3, PS) was 50%.
Still for that read-out and setting: the value for “CGGTCACCTTTCATAA (sugars k3 d9 k3 e1, PS)” was 67%; that for “ACAGATTGGAATGCTA (sugars kkdddddddddkekek, PS)” was 49%; that for “CTAAAATTGTCTAAAC (sugars k3 d9 k3 e1, PS)” was 7%.
On to CTCCATAATAATAGCT (sugars k3 d10 k3, PS), for which the target mRNA inhibition (1 µM) is 59%.
The same measure, in the same setting: the value for “CAGATTGGAATGCTAC (sugars kkdddddddddkekek, PS)” was 57%.
On the same count and under the same terms, the value for “GAACAATATGGGATGA (sugars kkdddddddddkekek, PS)” was 49%.
The same measure, in the same setting: the value for ATTAAGCTTAGTATAT (sugars k3 d10 k3, PS) was 10%; that for AACTAACCTGACACAT (sugars k3 d10 k3, PS) was 20%; that for AAAAGGCCCAAGGCTT (sugars k3 d10 k3, PS) was 30%.
“CTAGGGAAATCTTTCA (sugars kkdddddddddkekek, PS)”: the target mRNA inhibition (1 µM) stood at 46%.
Consider GCCTTACCAGAATTTA (sugars k3 d10 k3, PS), for which, under “1 µM”, the target mRNA inhibition was found to be 75%.
Same read-out and setting: the value for GGCTTAATGTTCAGTT (sugars k3 d10 k3, PS) was 54%; that for “ACCGTTTTGGGCTAAT (sugars k3 d9 k3 e1, PS)” was 73%.
Still for that read-out and setting: the value for TCAGTCCTTGTGTAGT (sugars k3 d10 k3, PS) was 72%.
Take “AGGTTGAGATAAAGCT (sugars k3 d9 k3 e1, PS)”: the target mRNA inhibition by setting is: (0.02 µM) 0%; (0.078 µM) 23%; (0.313 µM) 46%; (1 µM) 71%; (1.25 µM) 64%; (5 µM) 77%.
“GAAAUTGATACACCAA (sugars k3 d1 m1 d8 k3, PS)” registered a target mRNA inhibition (1 µM) of 58%.
